The values below come from patent US20110003888A1, “HOPS EXTRACTION METHODS AND MIXTURES” (Bioactives, Inc., priority 2007, published 2011).

Data set [1] addresses T1, Cyp1B1 (Homo sapiens, UniProt Q16678).
T1 sequence (Q16678 1-543): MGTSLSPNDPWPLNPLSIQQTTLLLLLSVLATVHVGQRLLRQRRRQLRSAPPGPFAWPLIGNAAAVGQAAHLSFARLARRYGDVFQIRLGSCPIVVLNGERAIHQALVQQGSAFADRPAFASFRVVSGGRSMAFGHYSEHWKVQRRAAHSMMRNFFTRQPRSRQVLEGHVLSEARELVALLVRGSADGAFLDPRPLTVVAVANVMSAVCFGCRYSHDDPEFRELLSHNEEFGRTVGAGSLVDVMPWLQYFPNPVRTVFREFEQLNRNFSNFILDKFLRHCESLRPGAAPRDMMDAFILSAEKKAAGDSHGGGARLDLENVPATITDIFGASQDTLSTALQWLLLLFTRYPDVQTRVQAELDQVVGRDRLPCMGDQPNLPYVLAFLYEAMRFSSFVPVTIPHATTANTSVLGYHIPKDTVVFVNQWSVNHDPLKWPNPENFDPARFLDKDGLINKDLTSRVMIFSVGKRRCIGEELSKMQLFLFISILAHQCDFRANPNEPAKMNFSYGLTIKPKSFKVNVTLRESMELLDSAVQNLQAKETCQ
As to conditions: cDNA-expressed human Cyp1B1; cited from earlier work.

Data set [2] addresses T2, Cyp1 A2 (Homo sapiens, UniProt P05177).
T2 sequence (P05177 1-516): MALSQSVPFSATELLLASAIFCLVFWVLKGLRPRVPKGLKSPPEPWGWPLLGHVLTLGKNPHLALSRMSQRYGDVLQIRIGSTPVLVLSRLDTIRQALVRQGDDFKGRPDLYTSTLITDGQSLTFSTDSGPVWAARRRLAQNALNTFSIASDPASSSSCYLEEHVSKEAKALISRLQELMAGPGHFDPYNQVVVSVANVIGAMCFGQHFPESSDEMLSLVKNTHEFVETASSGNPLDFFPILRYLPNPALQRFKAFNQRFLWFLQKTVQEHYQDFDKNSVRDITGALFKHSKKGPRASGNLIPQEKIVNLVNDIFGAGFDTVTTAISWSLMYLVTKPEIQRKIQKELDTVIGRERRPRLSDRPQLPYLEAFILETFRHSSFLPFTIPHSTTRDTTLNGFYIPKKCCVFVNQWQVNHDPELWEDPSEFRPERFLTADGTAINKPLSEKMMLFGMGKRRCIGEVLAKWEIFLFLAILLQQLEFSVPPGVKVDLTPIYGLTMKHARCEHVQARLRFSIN
As to conditions: cDNA-expressed human Cyp1 A2; cited from earlier work.

For data set [3], the system named is endothelial cells. As to conditions: in vitro model, endothelial cells invading collagen gel and forming capillary-like tubes; cited from earlier work.
For data set [4], the target named is T3, Cyp1 A1 (Homo sapiens, UniProt P04798).
T3 sequence (P04798 1-512): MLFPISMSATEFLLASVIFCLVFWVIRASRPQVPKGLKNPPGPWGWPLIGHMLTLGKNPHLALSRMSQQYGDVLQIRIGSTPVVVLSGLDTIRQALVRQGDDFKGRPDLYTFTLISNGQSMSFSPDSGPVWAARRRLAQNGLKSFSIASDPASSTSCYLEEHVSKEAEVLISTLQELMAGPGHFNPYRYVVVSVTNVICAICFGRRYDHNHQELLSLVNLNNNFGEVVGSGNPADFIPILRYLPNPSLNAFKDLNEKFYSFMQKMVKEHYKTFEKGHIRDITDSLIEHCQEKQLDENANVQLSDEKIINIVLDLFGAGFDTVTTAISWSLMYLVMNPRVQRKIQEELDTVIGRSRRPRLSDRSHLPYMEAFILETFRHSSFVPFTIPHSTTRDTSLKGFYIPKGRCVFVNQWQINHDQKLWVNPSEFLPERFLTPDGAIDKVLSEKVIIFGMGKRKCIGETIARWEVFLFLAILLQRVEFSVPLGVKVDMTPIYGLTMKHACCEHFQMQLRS
As to conditions: cDNA-expressed human Cyp1 A1; cited from earlier work.

A short description of data set [5]: in vitro. The conditions noted are these: human, Caco-2. Here is the method: (§1) To test the permeability of xanthohumol across Caco-2 cell monolayers, Caco-2 cell monolayers were grown to confluence on collagen-coated, microporous, polycarbonate membranes in 12-well Costar Transwell® plates. Details of the plates and their certification are shown below in Table 3. The test article was also the aqueous xanthohumol formulation, and the dosing concentration was 2 μM in the assay buffer (HBSSg) as in the previous example. Cell monolayers were dosed on the apical side (A-to-B) or basolateral side (B-to-A) and incubated at 37° C. with 5% CO2 in a humidified incubator. Samples were taken from the donor chamber at 120 minutes, and samples from the receiver chamber were collected at 60 and 120 minutes. Each determination was performed in duplicate. Lucifer yellow permeability was also measured for each monolayer after being subjected to the test article to ensure no damage was inflicted to the cell monolayers during the permeability experiment. All samples were assayed for Xanthohumol by LC/MS/MS using electrospray ionization. The apparent permeability (Papp), and percent recovery were calculated as described above.

The nature of data set [6]: Permeability through cell-free (blank) microporous membrane filter, non-specific binding assessment. It is filed as in vitro ADME. The conditions noted are these: not told, pH 7.4, cell-free filter; for Papp A→B at 120 min, 2 μM: xanthohumol gel formulation at 2 μM xanthohumol; for recovery at 120 min, 2 μM: xanthohumol gel formulation at 2 μM. Here is the method: The permeability of the xanthohumol gel through a cell-free (blank) microporous 0.4 micron membrane filter was studied in order to determine the non-specific binding and cell-free diffusion Papp of the xanthohumol gel formulation. The xanthohumol gel formulation was assayed at a 2 μM xanthohumol concentration in Hanks buffer (Hanks Balanced Salt Solution (HBSSg) containing 10 mM HEPES and 15 mM glucose) at a pH of 7.4 in duplicate. Donor samples were collected at 120 minutes. Receiver samples were collected at 60 and 120 minutes. The apparent permeability coefficient, Papp, and percent recovery were calculated as follows:
(§2) Percent Recovery=100×((Vr×Cr^final)+(Vd×Cd^final))/(Vd×C0) • Where: • dCr/dt is the slope of the cumulative concentration in the receiver compartment versus time in μM s^−1. • Vr is the volume of the receiver compartment in cm^3. • Vd is the volume of the donor compartment in cm^3. • A is the area of the cell-free insert (1.13 cm^2 for 12-well Transwell). • Cr^final is the cumulative receiver concentration in μM at the end of the incubation period. • Cd^final is the concentration of the donor in μM at the end of the incubation period. • C0 is the initial concentration of the dosing solution in μM.

The subject of data set [7] is inducible COX-2. As to conditions: read-out: IC50, inhibition of cyclooxygenase; cited from earlier work.
Data set [8] in a line: Permeability across Caco-2 cell monolayers. It is filed as in vitro ADME. As to conditions: human. Here is the method: as §2
(§3) Each determination was performed in duplicate.
For orientation: Caco-2 cells form a polarised layer with tight junctions and transporters.

The test system of data set [9] is Caco-2 cell monolayers. The data set can be described thus: Permeability across Caco-2 cell monolayers. The class given is in vitro ADME. Here is the method: as §2, §3
The subject of data set [10] is Caco-2 cell monolayers. Briefly: Caco-2 Transwell plate certification with control compounds. The conditions noted are these: Caco-2 plate certification, TW12, passage 63, age 22 days. Here is the method: as §1

For the molecule `CC(C)=CCc1c(O)cc(O)c2c1O[C@H](c1ccc(O)cc1)CC2=O` [8-prenylnaringenin], the “Inhibition of cytochrome P450 enzyme” value in data set [1], in [2] and in data set [4] was “strongly inhibit” throughout. In data set [3], the Effect on angiogenesis entry is “inhibits angiogenesis”.
As usually defined, the efflux ratio is a quotient of directional permeabilities that is used to spot active efflux. For the molecule `C[C@H]1O[C@@H](O[C@H]2[C@@H](O)C[C@H](O[C@H]3[C@@H](O)C[C@H](O[C@H]4CC[C@@]5(C)[C@H](CC[C@@H]6[C@@H]5C[C@@H](O)[C@]5(C)[C@@H](C7=CC(=O)OC7)CC[C@]65O)C4)O[C@@H]3C)O[C@@H]2C)C[C@H](O)[C@@H]1O` [Digoxin], the efflux ratio in [5] was 16.6.
In general, Papp refers to a coefficient for how fast a substance crosses the barrier. `CC(C)NCC(O)COc1cccc2ccccc12` (stereo not shown) [Propranolol] returned an apparent permeability (Papp) in [5] of 20.6 ×10⁻⁶ cm/s.
For orientation: Papp A→B means how fast a substance crosses the layer from the apical side. High values mean ready permeation, low ones poor permeation. For orientation: IC50 means the concentration at which inhibition is half-maximal. As usually defined, the Papp B→A is the apparent permeability from the basolateral to the apical side of a cell layer. Consider `COc1cc(O)c(CC=C(C)C)c(O)c1C(=O)/C=C/c1ccc(O)cc1` [Xanthohumol, xanthohumol], for which the “Inhibition of cytochrome P450 enzyme” value in data set [1], in data set [2] and in data set [4] was “strongly inhibit” each time. Also, the Papp A→B at 120 min, 2 μM in data set [6] (pH 7.4, Rep. 1) is 18.6 ×10⁻⁶ cm/s; in [6] (pH 7.4, Rep. 2), 17.1 ×10⁻⁶ cm/s; in [6] (pH 7.4, average N = 2) it was 17.9 ×10⁻⁶ cm/s; in data set [8] (Caco-2, pH 7.4, Papp), 0.84 ×10⁻⁶ cm/s. Also, the recovery at 120 min, 2 μM in data set [6] (Rep. 1) came to 95%; in data set [6] (Rep. 2), 99%; in data set [6] (average N = 2), 97%. The IC50 in data set [7] was 42 µM. Also, in data set [8] (Caco-2, pH 7.4), the efflux ratio at 120 min, 2 μM is 2.1. The molecule further had a Papp B→A at 120 min, 2 μM in data set [8] (Caco-2, pH 7.4, Papp) of 1.36 ×10⁻⁶ cm/s. Besides, in data set [9] (Caco-2), the “Significant Efflux” value is “No”.
`COc1cc(O)c(CC=C(C)C)c2c1C(=O)CC(c1ccc(O)cc1)O2` (stereo not shown) [isoxanthohumol]: the “Inhibition of cytochrome P450 enzyme” value in data set [1], in data set [2] and in data set [4] was “strongly inhibit” each time.
With Lucifer Yellow [reference compound], in data set [10], the apparent permeability coefficient (Papp) came to 0.13 ×10⁻⁶ cm/s. Besides, the “Lucifer yellow Papp, post-experiment integrity control” value in data set [9] (all monolayers after exposure to test article) was under 0.8 ×10⁻⁶ cm/s.
